Source: ChEMBL document CHEMBL3400015, “Tertiary amides of Salinomycin: A new group of antibacterial agents against Bacillus anthracis and methicillin-resistant Staphylococcus epidermidis” (Bioorg Med Chem Lett, 2015)
Converted amounts (≈) assume the structure as drawn.

What was measured:
Assay type in all cases: functional
[1] = tested on: Staphylococcus epidermidis; assay: Antimicrobial activity against methicillin-resistant Staphylococcus epidermidis isolate 424/10 after 18 hrs by twofold serial broth dilution method; conditions: isolate 424/10, 18 h
[2] = tested on: Staphylococcus epidermidis; assay: Bactericidal activity against methicillin-resistant Staphylococcus epidermidis isolate 409/10 after 24 hrs; conditions: isolate 409/10, 24 h, read-out: MBC99.9
Staphylococcus aureus [3] = assay: Antimicrobial activity against Staphylococcus aureus ATCC 6538 after 18 hrs by twofold serial broth dilution method; conditions: ATCC 6538, 18 h
Escherichia coli [4] = assay: Antimicrobial activity against Escherichia coli ATCC 10538 after 18 hrs by twofold serial broth dilution method; conditions: ATCC 10538, 18 h
[5] = tested on: Staphylococcus epidermidis; assay: Antimicrobial activity against methicillin-resistant Staphylococcus epidermidis isolate 455/11 after 18 hrs by twofold serial broth dilution method; conditions: isolate 455/11, 18 h
[6] = tested on: Staphylococcus epidermidis; assay: Bactericidal activity against methicillin-resistant Staphylococcus epidermidis isolate 404/10 after 24 hrs; conditions: isolate 404/10, 24 h, read-out: MBC99.9
Escherichia coli [7] = assay: Bactericidal activity against Escherichia coli ATCC 25922 after 24 hrs; conditions: ATCC 25922, 24 h, read-out: MBC99.9
Escherichia coli [8] = assay: Antimicrobial activity against Escherichia coli NCTC 8196 after 18 hrs by twofold serial broth dilution method; conditions: NCTC 8196, 18 h
[9] = tested on: Staphylococcus epidermidis; assay: Antimicrobial activity against methicillin-resistant Staphylococcus epidermidis isolate 454/11 after 18 hrs by twofold serial broth dilution method; conditions: isolate 454/11, 18 h
Pseudomonas aeruginosa [10] = assay: Bactericidal activity against Pseudomonas aeruginosa ATCC 27853 after 24 hrs; conditions: ATCC 27853, 24 h, read-out: MBC99.9
Staphylococcus aureus [11] = assay: Bactericidal activity against Staphylococcus aureus […] after 24 hrs; conditions: read-out: MBC99.9
[12] = tested on: Staphylococcus epidermidis; assay: Antimicrobial activity against methicillin-resistant Staphylococcus epidermidis isolate 403/10 after 18 hrs by twofold serial broth dilution method; conditions: isolate 403/10, 18 h
[13] = tested on: Staphylococcus epidermidis; assay: Antimicrobial activity against methicillin-resistant Staphylococcus epidermidis isolate 469/11 after 18 hrs by twofold serial broth dilution method; conditions: isolate 469/11, 18 h
[14] = tested on: Staphylococcus epidermidis; assay: Bactericidal activity against Staphylococcus epidermidis ATCC 35984 after 24 hrs; conditions: ATCC 35984, 24 h, read-out: MBC99.9
[15] = tested on: Staphylococcus epidermidis; assay: Antimicrobial activity against methicillin-resistant Staphylococcus epidermidis isolate 461/11 after 18 hrs by twofold serial broth dilution method; conditions: isolate 461/11, 18 h
[16] = tested on: Staphylococcus epidermidis; assay: Bactericidal activity against methicillin-resistant Staphylococcus epidermidis isolate 454/11 after 24 hrs; conditions: isolate 454/11, 24 h, read-out: MBC99.9
[17] = tested on: Staphylococcus epidermidis; assay: Antimicrobial activity against methicillin-resistant Staphylococcus epidermidis isolate 459/11 after 18 hrs by twofold serial broth dilution method; conditions: isolate 459/11, 18 h
Staphylococcus aureus [18] = assay: Bactericidal activity against Staphylococcus aureus ATCC 25923 after 24 hrs; conditions: ATCC 25923, 24 h, read-out: MBC99.9
Bacillus anthracis = assay: Antimicrobial activity against Bacillus anthracis 34F2 after 18 hrs by twofold serial broth dilution method; conditions: 34F2, 18 h
[19] = tested on: Staphylococcus epidermidis; assay: Antimicrobial activity against methicillin-resistant Staphylococcus epidermidis isolate 409/10 after 18 hrs by twofold serial broth dilution method; conditions: isolate 409/10, 18 h
Staphylococcus aureus [20] = assay: Bactericidal activity against Staphylococcus aureus ATCC 6538 after 24 hrs; conditions: ATCC 6538, 24 h, read-out: MBC99.9
[21] = tested on: Staphylococcus epidermidis; assay: Bactericidal activity against methicillin-resistant Staphylococcus epidermidis isolate 460/11 after 24 hrs; conditions: isolate 460/11, 24 h, read-out: MBC99.9
[22] = tested on: Staphylococcus epidermidis; assay: Bactericidal activity against methicillin-resistant Staphylococcus epidermidis isolate 455/11 after 24 hrs; conditions: isolate 455/11, 24 h, read-out: MBC99.9
Escherichia coli [23] = assay: Bactericidal activity against Escherichia coli ATCC 10538 after 24 hrs; conditions: ATCC 10538, 24 h, read-out: MBC99.9
[24] = tested on: Staphylococcus epidermidis; assay: Antimicrobial activity against methicillin-resistant Staphylococcus epidermidis isolate 422/10 after 18 hrs by twofold serial broth dilution method; conditions: isolate 422/10, 18 h
Staphylococcus aureus [25] = assay: Antimicrobial activity against Staphylococcus aureus ATCC 25923 after 18 hrs by twofold serial broth dilution method; conditions: ATCC 25923, 18 h
[26] = tested on: Staphylococcus epidermidis; assay: Antimicrobial activity against methicillin-resistant Staphylococcus epidermidis isolate 404/10 after 18 hrs by twofold serial broth dilution method; conditions: isolate 404/10, 18 h
[27] = tested on: Staphylococcus epidermidis; assay: Antimicrobial activity against methicillin-resistant Staphylococcus epidermidis isolate 470/11 after 18 hrs by twofold serial broth dilution method; conditions: isolate 470/11, 18 h
[28] = tested on: Staphylococcus epidermidis; assay: Bactericidal activity against methicillin-resistant Staphylococcus epidermidis isolate 422/10 after 24 hrs; conditions: isolate 422/10, 24 h, read-out: MBC99.9
Pseudomonas aeruginosa [29] = assay: Antimicrobial activity against Pseudomonas aeruginosa NCTC 6749 after 18 hrs by twofold serial broth dilution method; conditions: NCTC 6749, 18 h
[30] = tested on: Staphylococcus epidermidis; assay: Antimicrobial activity against Staphylococcus epidermidis ATCC 35984 after 18 hrs by twofold serial broth dilution method; conditions: ATCC 35984, 18 h
Pseudomonas aeruginosa [31] = assay: Antimicrobial activity against Pseudomonas aeruginosa ATCC 15442 after 18 hrs by twofold serial broth dilution method; conditions: ATCC 15442, 18 h
[32] = tested on: Staphylococcus epidermidis; assay: Antimicrobial activity against methicillin-resistant Staphylococcus epidermidis isolate 457/11 after 18 hrs by twofold serial broth dilution method; conditions: isolate 457/11, 18 h
[33] = tested on: Staphylococcus epidermidis; assay: Bactericidal activity against methicillin-resistant Staphylococcus epidermidis isolate 424/10 after 24 hrs; conditions: isolate 424/10, 24 h, read-out: MBC99.9
[34] = tested on: Staphylococcus epidermidis; assay: Antimicrobial activity against methicillin-resistant Staphylococcus epidermidis isolate 405/10 after 18 hrs by twofold serial broth dilution method; conditions: isolate 405/10, 18 h
Pseudomonas aeruginosa [35] = assay: Bactericidal activity against Pseudomonas aeruginosa ATCC 15442 after 24 hrs; conditions: ATCC 15442, 24 h, read-out: MBC99.9
[36] = tested on: Staphylococcus epidermidis; assay: Bactericidal activity against methicillin-resistant Staphylococcus epidermidis isolate 469/11 after 24 hrs; conditions: isolate 469/11, 24 h, read-out: MBC99.9
Escherichia coli [37] = assay: Bactericidal activity against Escherichia coli NCTC 8196 after 24 hrs; conditions: NCTC 8196, 24 h, read-out: MBC99.9
[38] = tested on: Staphylococcus epidermidis; assay: Bactericidal activity against methicillin-resistant Staphylococcus epidermidis isolate 405/10 after 24 hrs; conditions: isolate 405/10, 24 h, read-out: MBC99.9
[39] = tested on: Staphylococcus epidermidis; assay: Bactericidal activity against methicillin-resistant Staphylococcus epidermidis isolate 403/10 after 24 hrs; conditions: isolate 403/10, 24 h, read-out: MBC99.9
Staphylococcus aureus [40] = assay: Antimicrobial activity against Staphylococcus aureus […] after 18 hrs by twofold serial broth dilution method

Question: What does the source list for `CCCCCCCCN(CCCCCCCC)C(=O)[C@H](CC)[C@H]1CC[C@H](C)[C@H]([C@@H](C)[C@H](O)[C@H](C)C(=O)[C@H](CC)[C@H]2O[C@]3(C=C[C@@H](O)[C@]4(CC[C@@](C)([C@H]5CC[C@](O)(CC)[C@H](C)O5)O4)O3)[C@H](C)C[C@@H]2C)O1`?
Answer: MIC [1]: > 256 µg/mL; MBC [2]: > 256 µg/mL; MIC (Staphylococcus aureus [3]): 128 µg/mL (≈ 131 µM); MIC (Escherichia coli [4]): > 256 µg/mL; MIC [5]: > 256 µg/mL; MBC [6]: > 256 µg/mL; MBC (Escherichia coli [7]): > 256 µg/mL; MIC (Escherichia coli [8]): > 256 µg/mL; MIC [9]: > 256 µg/mL; MBC (Pseudomonas aeruginosa [10]): > 256 µg/mL; MBC (Staphylococcus aureus [11]): > 256 µg/mL; MIC [12]: 256 µg/mL (≈ 263 µM); MIC [13]: 256 µg/mL (≈ 263 µM); MBC [14]: > 256 µg/mL; MIC [15]: > 256 µg/mL; MBC [16]: > 256 µg/mL; MIC [17]: 256 µg/mL (≈ 263 µM); MBC (Staphylococcus aureus [18]): > 256 µg/mL; MIC (Bacillus anthracis): 64 µg/mL (≈ 65.7 µM); MIC [19]: > 256 µg/mL; MBC (Staphylococcus aureus [20]): > 256 µg/mL; MBC [21]: > 256 µg/mL; MBC [22]: > 256 µg/mL; MBC (Escherichia coli [23]): > 256 µg/mL; MIC [24]: 256 µg/mL (≈ 263 µM); MIC (Staphylococcus aureus [25]): 128 µg/mL (≈ 131 µM); MIC [26]: 256 µg/mL (≈ 263 µM); MIC [27]: 256 µg/mL (≈ 263 µM); MBC [28]: > 256 µg/mL; MIC (Pseudomonas aeruginosa [29]): > 256 µg/mL; MIC [30]: 128 µg/mL (≈ 131 µM); MIC (Pseudomonas aeruginosa [31]): > 256 µg/mL; MIC [32]: 256 µg/mL (≈ 263 µM); MBC [33]: > 256 µg/mL; MIC [34]: > 256 µg/mL; MBC (Pseudomonas aeruginosa [35]): > 256 µg/mL; MBC [36]: > 256 µg/mL; MBC (Escherichia coli [37]): > 256 µg/mL; MBC [38]: > 256 µg/mL; MBC [39]: > 256 µg/mL; MIC (Staphylococcus aureus [40]): 256 µg/mL (≈ 263 µM)
